Biological target: T1, Serine/threonine-protein kinase Chk1 (Homo sapiens, UniProt O14757)
T1 sequence (O14757 whole entry): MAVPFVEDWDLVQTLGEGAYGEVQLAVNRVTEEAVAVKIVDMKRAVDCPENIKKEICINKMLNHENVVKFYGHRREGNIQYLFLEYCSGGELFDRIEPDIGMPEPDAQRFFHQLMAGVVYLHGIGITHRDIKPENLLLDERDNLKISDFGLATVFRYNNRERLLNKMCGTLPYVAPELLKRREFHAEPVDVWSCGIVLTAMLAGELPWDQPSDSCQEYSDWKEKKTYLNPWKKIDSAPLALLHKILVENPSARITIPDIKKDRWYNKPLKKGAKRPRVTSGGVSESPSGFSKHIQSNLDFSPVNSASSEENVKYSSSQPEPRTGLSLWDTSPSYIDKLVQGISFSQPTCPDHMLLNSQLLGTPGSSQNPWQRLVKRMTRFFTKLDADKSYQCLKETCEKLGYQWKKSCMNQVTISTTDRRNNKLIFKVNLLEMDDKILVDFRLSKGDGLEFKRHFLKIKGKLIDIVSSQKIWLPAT
Experiment: Inhibiting Assay: The compounds of the invention were tested for activity against Chk-1 kinase using the materials and protocols set out below. Reaction Buffer: Base Reaction buffer: 20 mM Hepes (pH 7.5), 10 mM MgCl2, 1 mM EGTA, 0.02% Brij35, 0.02 mg/ml BSA, 0.1 mM Na3VO4, 2 mM DTT, 1% DMSO. Required cofactors are added individually to each kinase reaction Reaction Procedure:(i) Prepare indicated substrate in freshly prepared Base Reaction Buffer(ii) Deliver any required cofactors to the substrate solution above(iii) Deliver indicated kinase into the substrate solution and gently mix(iv) Deliver compounds in DMSO into the kinase reaction mixture(v) Deliver 33P-ATP (specific activity 0.01 μCi/μl final) into the reaction mixture to initiate the reaction.(vi) Incubate kinase reaction for 120 minutes at room temperature(vii) Reactions are spotted onto P81 ion exchange paper (Whatman #3698-915)(viii) Wash filters extensively in 0.1% phosphoric acid.(ix) Measure counts in scintillation counter.
Type: organism-based

IC50: 19 nM
Compound: N#Cc1cnc(NC(=O)Nc2ccc(CCNCc3ccc(F)cc3)c(Br)c2)cn1

— ChEMBL document CHEMBL3638498, “Pharmaceutical compounds” (2014)
